Measurements published in US11213510B2, “Thioindirubins” (City of Hope, priority 2017, dated 2022).
pIC50: −log10 of the molar value. Where two headings read alike, the source gives them in different places.

Tests used:
Type in all cases: cell-based
A2058 melanoma cell line = test: MTS cell viability assay, A2058; details: for Cell viability (% control) A2058 1 μM / Cell viability (% control) A2058 10 μM / Cell viability at 10 μM (% control) A2058: 48 h; for Cell viability (% control) A2058 1 μM / Cell viability (% control) A2058 10 μM / IC50: MTS; for IC50: A2058, 48 h, read-out: IC50 values (μM) against prostate cancer and melanoma A2058 (melanoma); for Cell viability at 10 μM (% control) A2058: MTS (Table 2)
Text: (§1) To determine if novel synthetic thioindirubins have antitumor activities, we performed an MTS cell viability assay. Initially, we screened them at […] final concentration with A2058 melanoma and DU145 prostate cancer cell lines. Then, compound 9b and compound 7e were selected to determine IC50 values against prostate cancer, melanoma and lung cancer cells, including DU145, A2058, A549, H513, H2461, H358, DMS114, H2596, DMS273, H69, H526 and DMS114 cell lines. For the viability assay, 5000 cells/well were seeded in 96-well plates, incubated overnight at 37° C. in 5% CO2 and then exposed to […] of compounds or in a dose-dependent manner for 48 h. After 48 h treatment with compounds, MTS dye (20 μL/well) was added to 96-well plates. Viable cell numbers were determined by tetrazolium conversion to its formazan dye. Absorbance was measured at 490 nm using the BMG LABTECH plate reader. Dimethyl sulfoxide (DMSO) was used as the vehicle control. Each experiment was conducted in triplicate. IC50 values were determined using CalcuSyn software (Biosoft).

[1] = test system: DU145 prostate cancer cell line; test: MTS cell viability assay, DU145; details: for Cell viability (% control) DU145 1 μM / Cell viability (% control) DU145 10 μM / Cell viability at 10 μM (% control) DU145: 48 h; for Cell viability (% control) DU145 1 μM / Cell viability (% control) DU145 10 μM / IC50: MTS; for IC50: DU145, 48 h, read-out: IC50 values (μM) against prostate cancer and melanoma DU145 (prostate cancer); for Cell viability at 10 μM (% control) DU145: MTS (Table 2)
Text: as §1

[2] = test system: A549 non-small lung cancer cell line; test: MTS cell viability assay, A549; details: A549, 48 h, read-out: IC50 values (μM) against non-small lung cancer A549
Text: as §1

[3] = test system: DMS114 small lung cancer cell line; test: MTS cell viability assay, DMS114; details: read-out: IC50 values (μM) against small lung cancer DMS114
Text: as §1

[4] = test system: H69 small lung cancer cell line; test: MTS cell viability assay, H69; details: H69, 48 h, read-out: IC50 values (μM) against small lung cancer H69
Text: as §1

[5] = test system: H2596 non-small lung cancer cell line; test: MTS cell viability assay, H2596; details: H2596, 48 h, read-out: IC50 values (μM) against non-small lung cancer H2596
Text: as §1

[6] = test system: H2461 non-small lung cancer cell line; test: MTS cell viability assay, H2461; details: H2461, 48 h, read-out: IC50 values (μM) against non-small lung cancer H2461
Text: as §1

[7] = test system: H513 non-small lung cancer cell line; test: MTS cell viability assay, H513; details: H513, 48 h, read-out: IC50 values (μM) against non-small lung cancer H513
Text: as §1

[8] = test system: H358 non-small lung cancer cell line; test: MTS cell viability assay, H358; details: read-out: IC50 values (μM) against non-small lung cancer H358
Text: as §1

[9] = test system: DMS273 small lung cancer cell line; test: MTS cell viability assay, DMS273; details: read-out: IC50 values (μM) against small lung cancer DMS273
Text: as §1

[10] = test system: H526 small lung cancer cell line; test: MTS cell viability assay, H526; details: read-out: IC50 values (μM) against small lung cancer H526
Text: as §1

[11] = test system: lung cancer, prostate cancer and melanoma cell lines; test: MTS cell viability assay, cancer cell line panel (summary statement); details: some cell lines, not specified; read-out: IC50 against some cell lines (antitumor activities)
Description: IC50 values (μM) of compound 9b were determined using lung cancer cell lines including non-small lung cancer cell lines (Table 3: A549, H513, H2461, H358, ad H2596) and small lung cancer cell lines (Table 4: DMS273, H69, H526, and DMS114), prostate cancer (Table 5: DU145), melanoma (Table 5: A2058).
as §1

SMILES | Cell viability (% control) A2058 1 μM (A2058 melanoma cell line) | Cell viability (% control) A2058 10 μM (A2058 melanoma cell line; A2058, 10 μM) | Cell viability (% control) DU145 1 μM [1] | Cell viability (% control) DU145 10 μM ([1]; DU145, 10 μM) | further results
O=C1Sc2ccccc2/C1=C1/Nc2ccc(Br)cc2C1=O [Compound 6b, (2′Z)-5′-Bromothioindirubin] | 97 % control | 100 % control | >100 % control | >100 % control | –
COC(=O)c1ccc2c(c1)C(=N\O)/C(=C1/C(=O)Nc3ccccc31)S2 [Compound 7e, (2′Z,3′E)-5′-(Methoxycarbonyl)thioindirubin-3′-oxime] | 90 % control | 68 % control | >100 % control | 88 % control | IC50 [2]: > 10 µM; IC50 ([3]; DMS114, 48 h): > 10 µM; IC50 (A2058 melanoma cell line): > 10 µM; IC50 [4]: > 10 µM; IC50 [5]: > 10 µM; IC50 [6]: > 10 µM; IC50 [1]: > 10 µM; IC50 [7]: > 10 µM; IC50 ([8]; H358, 48 h): 7.7 µM; IC50 ([9]; DMS273, 48 h): > 10 µM; IC50 ([10]; H526, 48 h): > 10 µM
O=C1Nc2ccccc2/C1=C1/Sc2ccccc2C1=O [Compound 6a, (2′Z)-Thioindirubin] | 99 % control | 77 % control | >100 % control | 90 % control | –
COC(=O)c1ccc2c(c1)C(=N\OCCN1CCOCC1)/C(=C1/C(=O)Nc3ccccc31)S2 [Compound 9c, (2′Z,3′E)-5′-(Methoxycarbonyl)thioindirubin-3′-[O-(2-(morpholino)ethyl)]oxime] | – | – | – | – | Cell viability at 10 μM (% control) A2058 (A2058 melanoma cell line; A2058, 10 μM): 70 % control; Cell viability at 10 μM (% control) DU145 ([1]; DU145, 10 μM): 101 % control
Cc1ccc2c(c1)C(=O)/C(=C1/C(=O)Nc3ccccc31)S2 [Compound 6g, (2′Z)-5′-Methylthioindirubin] | >100 % control | 97 % control | 94 % control | >100 % control | –
COC(=O)c1ccc2c(c1)S/C(=C1\C(=O)Nc3ccccc31)C2=O [Compound 6f, (2′Z)-6′-(Methoxycarbonyl)thioindirubin] | 93 % control | >100 % control | 99 % control | 93 % control | –
O=C1Sc2ccccc2/C1=C1/Nc2cc(Cl)ccc2C1=O [Compound 6c, (2′Z)-6′-Chlorothioindirubin] | 84 % control | 96 % control | 80 % control | 82 % control | –
COC(=O)c1ccc2c(c1)C(=N\OCCN1CCNCC1)/C(=C1/C(=O)Sc3ccccc31)N2 [Compound 9b, (2′Z,3′E)-5′-(Methoxycarbonyl)thioindirubin-3′-[O-(2-(piperazin-1-yl)ethyl)]oxime] | – | – | – | – | IC50 ([2]; Homo sapiens): 4.6 µM; IC50 ([3]; Homo sapiens, DMS-114, DMS114, 48 h): 1.13 µM; viabilities of these cells at 10 μM concentration (A2058), in words (A2058 melanoma cell line; A2058, 10 μM): extremely reduced viabilities; Cell viability at 10 μM (% control) A2058 (A2058 melanoma cell line; A2058, 10 μM): 8 % control; IC50 (A2058 melanoma cell line; Homo sapiens): 1.07 µM; IC50 [4]: 0.78 µM; IC50 [5]: 1.02 µM; IC50 [6]: 1 µM; viabilities of these cells at 10 μM concentration (DU145), in words ([1]; DU145, 10 μM): extremely reduced viabilities; Cell viability at 10 μM (% control) DU145 ([1]; DU145, 10 μM): 17 % control; IC50 ([1]; Homo sapiens, DU-145): 2.53 µM; IC50 [7]: 1.6 µM; pIC50 [11]: ~6.00; IC50 ([8]; Homo sapiens, NCI-H358, H358, 48 h): 2.4 µM; IC50 ([9]; Homo sapiens, DMS-273, DMS273, 48 h): 6.1 µM; IC50 ([10]; Homo sapiens, NCI-H526, H526, 48 h): 1.7 µM
O=C1Sc2ccccc2/C1=C1/Nc2cc(Cl)ccc2/C1=N\O [Compound 7c, (2′Z,3′E)-6′-Chlorothioindirubin-3′-oxime] | 86 % control | 27 % control | >100 % control | 33 % control | –
N#Cc1ccc2c(c1)C(=O)/C(=C1/C(=O)Sc3ccccc31)N2 [Compound 6d, (2′Z)-5′-Cyanothioindirubin] | 95 % control | 87 % control | >100 % control | 95 % control | –
N#Cc1ccc2c(c1)C(=N\O)/C(=C1/C(=O)Nc3ccccc31)S2 [Compound 7d, (2′Z,3′E)-5′-Cyanothioindirubin-3′-oxime] | 89 % control | 99 % control | >100 % control | 93 % control | –
Cc1ccc2c(c1)C(=N\O)/C(=C1/C(=O)Nc3ccccc31)S2 [Compound 7g, (2′Z,3′E)-5′-Methylthioindirubin-3′-oxime] | 84 % control | 88 % control | 88 % control | 79 % control | –
O=C1Nc2ccccc2/C1=C1/Sc2ccccc2/C1=N\OCCN1CCNCC1 [Compound 9a, (2′Z,3′E)-Thioindirubin-3′-[O-(2-(piperazin-1-yl)ethyl)]oxime] | – | – | – | – | Cell viability at 10 μM (% control) A2058 (A2058 melanoma cell line; A2058, 10 μM): 91 % control; Cell viability at 10 μM (% control) DU145 ([1]; DU145, 10 μM): 82 % control
COC(=O)c1ccc2c(c1)NC(=C1\C(=O)Sc3ccccc31)/C2=N/O [Compound 7f, (2′Z,3′E)-6′-(Methoxycarbonyl)thioindirubin-3′-oxime] | 92 % control | >100 % control | >100 % control | >100 % control | –
COC(=O)c1ccc2c(c1)C(=O)/C(=C1/C(=O)Sc3ccccc31)N2 [Compound 6e, (2′Z)-5′-(Methoxycarbonyl)thioindirubin] | 92 % control | 94 % control | >100 % control | >100 % control | –
